Data from ChEMBL document CHEMBL1201862, “PubChem BioAssay data set” (2004).
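Protocol summary: plate cells (96-well), add compound at 5 concentrations, incubate 48 h, interpolate endpoints linearly. GI50 is the concentration that inhibits growth by half.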 The source made the active and inactive calls. Cut-off read from the data, not from the text of the source: active = GI50 up to about 1.1 µM and inactive = higher.

Experiments:
Assay in all cases: DTP human tumour cell line panel, 48 h
RPMI-8226 = test system: RPMI-8226
HCT-15 = test system: HCT-15
M14 = test system: M14
MDA-MB-231 = test system: MDA-MB-231
SF-295 = test system: SF-295
OVCAR-8 = test system: OVCAR-8
OVCAR-3 = test system: OVCAR-3
NCI-H522 = test system: NCI-H522
MDA-N = test system: MDA-N
MDA-MB-435 = test system: MDA-MB-435
T47D = test system: T47D
DU-145 = test system: DU-145
A549 = test system: A549
HOP-62 = test system: HOP-62
RXF 393 = test system: RXF 393
Malme-3M = test system: Malme-3M

Row | SMILES | GI50 (RPMI-8226) | GI50 (HCT-15) [µM] | GI50 (M14) | GI50 (MDA-MB-231) | GI50 (SF-295) | GI50 (OVCAR-8) | GI50 (OVCAR-3) | GI50 (NCI-H522) | GI50 (MDA-N) | GI50 (MDA-MB-435) | GI50 (T47D) | GI50 (DU-145) | GI50 (A549) | GI50 (HOP-62) | GI50 (RXF 393) | GI50 (Malme-3M)
1 | CC(C)C(=O)OCN(C)c1nc(N(C)COC(=O)C(C)C)nc(N(C)COC(=O)C(C)C)n1 | 22.8 µM (inactive) | 21.6 | 17 µM (inactive) | 25.2 µM (inactive) | 27.3 µM (inactive) | 19.8 µM (inactive) | 36.6 µM (inactive) | 18.3 µM (inactive) | 22.2 µM (inactive) | 17.8 µM (inactive) | 30.3 µM (inactive) | 37.5 µM (inactive) | 43.1 µM (inactive) | 33.2 µM (inactive) | – | –
2 | N=C(N)SCCc1ccncc1 | > 100 µM (inactive) | > 100 | > 100 µM (inactive) | > 100 µM (inactive) | > 100 µM (inactive) | > 100 µM (inactive) | > 100 µM (inactive) | – | > 100 µM (inactive) | > 100 µM (inactive) | > 100 µM (inactive) | > 100 µM (inactive) | > 100 µM (inactive) | > 100 µM (inactive) | > 100 µM (inactive) | –
3 | CCOC(=O)CNC(=O)C(C)NC(=O)C(NC(=O)CC(c1ncc[nH]1)c1ncc[nH]1)C(C)CC (stereo not drawn) | > 100 µM (inactive) | > 100 | 84.9 µM (inactive) | > 100 µM (inactive) | > 100 µM (inactive) | > 100 µM (inactive) | > 100 µM (inactive) | > 100 µM (inactive) | > 100 µM (inactive) | > 100 µM (inactive) | > 100 µM (inactive) | > 100 µM (inactive) | > 100 µM (inactive) | – | – | > 100 µM (inactive)
4 | COc1ccc(/C=C2/SC(c3c(O)ccc4ccccc34)N(NC(=O)CCCCCCCCC(=O)NN3C(=O)/C(=C\c4ccc(OC)c(OC)c4)SC3c3c(O)ccc4ccccc34)C2=O)cc1OC (stereo not drawn) | 0.995 µM (active) | 0.871 | 0.897 µM (active) | – | 1.39 µM (inactive) | 0.553 µM (active) | 0.33 µM (active) | 0.472 µM (active) | 12.8 µM (inactive) | 11.3 µM (inactive) | 2.19 µM (inactive) | 1.61 µM (inactive) | 1.44 µM (inactive) | 0.65 µM (active) | 3.56 µM (inactive) | 2 µM (inactive)
5 | Cc1nc(C)c(C(=O)NNC(=O)C[N+](C)(C)C)cc1C(=O)NNC(=O)C[N+](C)(C)C | – | > 100 | > 100 µM (inactive) | > 100 µM (inactive) | > 100 µM (inactive) | > 100 µM (inactive) | > 100 µM (inactive) | – | > 100 µM (inactive) | > 100 µM (inactive) | 74.1 µM (inactive) | > 100 µM (inactive) | > 100 µM (inactive) | > 100 µM (inactive) | > 100 µM (inactive) | –
6 | COC1CC(OC2CCC3(C)C(=CCC4C3C(OC(C)=O)C(OC(=O)CC(C)C)C3(C)C(C(C)=O)CCC43O)C2)OC(C)C1OC1CC(OC)C(OC2CC(OC)C(OC3OC(C)C(OC4OC(CO)C(O)C(O)C4O)C(OC)C3O)C(C)O2)C(C)O1 (stereo not drawn) | > 75 µM (inactive) | > 75 | > 75 µM (inactive) | > 75 µM (inactive) | > 75 µM (inactive) | > 75 µM (inactive) | > 75 µM (inactive) | > 75 µM (inactive) | > 75 µM (inactive) | > 75 µM (inactive) | > 75 µM (inactive) | > 75 µM (inactive) | > 75 µM (inactive) | 11.6 µM (inactive) | – | –
7 | O=C(c1ccc2ccccc2c1O)N1CCCCC1 | 27.4 µM (inactive) | > 100 | > 100 µM (inactive) | > 100 µM (inactive) | 92.9 µM (inactive) | 68.2 µM (inactive) | – | – | – | > 100 µM (inactive) | 71.3 µM (inactive) | > 100 µM (inactive) | – | > 100 µM (inactive) | > 100 µM (inactive) | –
8 | CCN1CCC(O)(c2ccc(Oc3ccc(C)cc3)cc2)C(C(=O)c2ccc(Oc3ccc(C)cc3)cc2)C1 (stereo not drawn) | 1.48 µM (inactive) | 4.01 | 7.43 µM (inactive) | 6.18 µM (inactive) | 5.69 µM (inactive) | 13.7 µM (inactive) | 16 µM (inactive) | – | 10.7 µM (inactive) | 11.6 µM (inactive) | 12.8 µM (inactive) | 7.28 µM (inactive) | 12.8 µM (inactive) | 15.2 µM (inactive) | 2.81 µM (inactive) | 14.6 µM (inactive)
9 | Nc1ccc(C2NC(=O)Cc3c2ccc2ccccc32)cc1 (stereo not drawn) | > 100 µM (inactive) | 84.1 | 89.9 µM (inactive) | – | 45.5 µM (inactive) | 56.1 µM (inactive) | 26.1 µM (inactive) | > 100 µM (inactive) | 67.5 µM (inactive) | 68.5 µM (inactive) | 34.1 µM (inactive) | > 100 µM (inactive) | 33.2 µM (inactive) | 56.2 µM (inactive) | – | 47 µM (inactive)
10 | O=C(CCN1CCN2c3ccccc3CCC2C1)c1ccc(F)cc1 (stereo not drawn) | 28.9 µM (inactive) | 20.8 | 49.7 µM (inactive) | 37.7 µM (inactive) | > 100 µM (inactive) | 41.5 µM (inactive) | 32.1 µM (inactive) | 15.4 µM (inactive) | – | 24 µM (inactive) | 20 µM (inactive) | 30.1 µM (inactive) | > 100 µM (inactive) | 23.8 µM (inactive) | 20.6 µM (inactive) | 25.1 µM (inactive)
11 | C/C(Cl)=N\OC(=O)Nc1ccccc1C(F)(F)F | 21 µM (inactive) | > 100 | – | 22.6 µM (inactive) | > 100 µM (inactive) | 38.9 µM (inactive) | 15.8 µM (inactive) | – | 16.4 µM (inactive) | – | 80.2 µM (inactive) | > 100 µM (inactive) | > 100 µM (inactive) | – | – | 20.9 µM (inactive)
12 | O=C(C/C=C/c1ccccc1)c1ccccc1 | 28.2 µM (inactive) | 18.8 | 16.2 µM (inactive) | – | 44.4 µM (inactive) | 15.7 µM (inactive) | 41.6 µM (inactive) | 16.9 µM (inactive) | 19.8 µM (inactive) | 18 µM (inactive) | 16.9 µM (inactive) | 16 µM (inactive) | 10.8 µM (inactive) | 26.9 µM (inactive) | 15.8 µM (inactive) | –
13 | CCC(C)[C@H]1C(=O)N=C(N)N1C(=O)OCc1ccccc1 (stereo partly drawn) | > 100 µM (inactive) | > 100 | – | > 100 µM (inactive) | > 100 µM (inactive) | > 100 µM (inactive) | > 100 µM (inactive) | > 100 µM (inactive) | > 100 µM (inactive) | > 100 µM (inactive) | – | > 100 µM (inactive) | – | > 100 µM (inactive) | > 100 µM (inactive) | > 100 µM (inactive)
14 | COC(=O)C1CCCN1C(=O)OC(C)(C)C (stereo not drawn) | – | > 100 | – | > 100 µM (inactive) | > 100 µM (inactive) | – | > 100 µM (inactive) | – | > 100 µM (inactive) | > 100 µM (inactive) | > 100 µM (inactive) | > 100 µM (inactive) | > 100 µM (inactive) | > 100 µM (inactive) | > 100 µM (inactive) | –
15 | COc1ccc2c(c1)C(=O)CC(C(N)=O)C2 (stereo not drawn) | > 100 µM (inactive) | > 100 | > 100 µM (inactive) | > 100 µM (inactive) | > 100 µM (inactive) | > 100 µM (inactive) | > 100 µM (inactive) | > 100 µM (inactive) | – | > 100 µM (inactive) | > 100 µM (inactive) | > 100 µM (inactive) | > 100 µM (inactive) | > 100 µM (inactive) | > 100 µM (inactive) | > 100 µM (inactive)
16 | Cc1cc2nc3ccccc3n2c2nc(N)ccc12 | 14.8 µM (inactive) | 12 | 48 µM (inactive) | 58.2 µM (inactive) | 23.3 µM (inactive) | 15.8 µM (inactive) | 63.7 µM (inactive) | 31.6 µM (inactive) | 49.4 µM (inactive) | 49.5 µM (inactive) | 38.2 µM (inactive) | 52.6 µM (inactive) | 30.9 µM (inactive) | 26.3 µM (inactive) | 41.2 µM (inactive) | –
17 | COc1ccc(C(C2=C(O)COC2=O)c2cc3c(cc2O)OCO3)cc1OC (stereo not drawn) | > 100 µM (inactive) | > 100 | > 100 µM (inactive) | > 100 µM (inactive) | > 100 µM (inactive) | > 100 µM (inactive) | > 100 µM (inactive) | – | > 100 µM (inactive) | > 100 µM (inactive) | – | > 100 µM (inactive) | > 100 µM (inactive) | > 100 µM (inactive) | > 100 µM (inactive) | > 100 µM (inactive)
18 | CCOC(=O)c1csc(NC(=O)C(C)N2CCCC2)n1 (stereo not drawn) | 19.3 µM (inactive) | > 100 | > 100 µM (inactive) | > 100 µM (inactive) | > 100 µM (inactive) | > 100 µM (inactive) | > 100 µM (inactive) | – | > 100 µM (inactive) | > 100 µM (inactive) | > 100 µM (inactive) | > 100 µM (inactive) | > 100 µM (inactive) | > 100 µM (inactive) | > 100 µM (inactive) | –
19 | COc1cc2c(cc1OC)C(=O)/C(=C/c1ccc(N(C)C)cc1)CC2 | > 10 µM (inactive) | > 10 | > 10 µM (inactive) | > 10 µM (inactive) | > 10 µM (inactive) | > 10 µM (inactive) | > 10 µM (inactive) | – | > 10 µM (inactive) | > 10 µM (inactive) | > 10 µM (inactive) | > 10 µM (inactive) | > 10 µM (inactive) | > 10 µM (inactive) | > 10 µM (inactive) | > 10 µM (inactive)
20 | CCC(CC)C(=O)OC[n+]1ccc(-c2c(COC(=O)NC(C)C)c(COC(=O)NC(C)C)c3n2CCC3)cc1 | > 100 µM (inactive) | > 100 | > 100 µM (inactive) | > 100 µM (inactive) | > 100 µM (inactive) | > 100 µM (inactive) | > 100 µM (inactive) | > 100 µM (inactive) | > 100 µM (inactive) | – | – | – | > 100 µM (inactive) | > 100 µM (inactive) | > 100 µM (inactive) | –
